We go through 3 compounds from patent EP0807435A2, “Indirect HMG-CoA-reductase inhibitor” (Sertürner Arzneimittel GmbH, priority 1996, dated 1997).

For assay [1], the system named is kultivierten Rattenhepatocyten. Put plainly: Incorporation of 14C-labelled acetate into the non-saponifiable neutral lipid fraction (cholesterol de novo synthesis). It is filed as cell-based, Ratten. The procedure: Erfindungsgemäß wurde überraschenderweise an Hand von Messungen des Einbaus von ^14[…] in die Fraktion der nicht-verseifbaren neutralen Lipide von kultivierten Rattenhepatocyten nachgewiesen, daß Luteolin, seine Derivate und […] Verbindungen konzentrationsabhängig die Neusynthese von Cholesterin in […]. Bei Verwendung eines Luteolin-7-0-glucosid-[…] Kulturmedium in einer Konzentration zwischen 0,02 und 0,1 mg/ml […] (Plateau) von ca. 20% ein, ohne daß zytotoxische Wirkungen nachweisbar wären. Bei höheren Konzentrationen (bis 1 mg/ml) […] noch […] auf (maximal 85 %), ohne […] von 2 mg/ml einsetzen. Durch Ersatz des ^14[…] durch […] vor der Bildung von Mevalonat lag; Hemmwirkungen, die zu einer Verschiebung des Musters der Vorläufersterine des Cholesterin […]. Die Aktivität der HMG-CoA-Reduktase, des Schlüsselenzyms der Cholesterinsynthese, wird somit indirekt über […] oder […] des Enzyms gedrosselt.

The conditions of assay [2]: rabbits, blood lipids raised by cholesterol diet (200 mg Cholesterin pro kg Körpergewicht über 60 Tage); Chem. Abstr. 76; cited from earlier work.

Consider `O=c1cc(-c2ccc(O)c(O)c2)oc2cc(O)cc(O)c12` [Luteolin, 31,41,5-Tetrahydroxyflavon], for which the “Neusynthese von Cholesterin in den Leberzellen” value in assay [1] (14C-acetate incorporation, cultured rat hepatocytes) was “konzentrationsabhängig die Neusynthese von Cholesterin in den Leberzellen vermindern”. For the same compound, the “lipidsenkende Wirkung im Tierversuch” value in assay [2] was “lipidsenkende Wirkung”.

As to `O=C(/C=C/c1ccc(O)c(O)c1)O[C@@H]1C[C@@](OC(=O)/C=C/c2ccc(O)c(O)c2)(C(=O)O)C[C@@H](O)[C@@H]1O` [Cynarin, 1,5-Di-Caffeoyl-D-Chinasäure, reference compound], the “Hemmung der Cholesterinneusynthese” value in assay [1] (concentrations that are maximally achievable in artichoke leaf extract preparations) is “keinerlei Hemmung”.

For Luteolin-7-Glycosid, the “lipidsenkende Wirkung im Tierversuch” value in assay [2] is reported as “lipidsenkende Wirkung”.
